From patent publication US6346514B1, “Pharmaceutical lysine-containing polypeptide compositions and methods of use thereof” (priority 1991, dated 2002)

Test system: Vibrio anguillarum (V-775)
Experiment: Vaccine augmentation in Rainbow trout challenged with Vibrio anguillarum
Format: in vivo, Rainbow trout (Oncorhynchus mykiss)
Protocol: In the present investigation, fish were obtained and inoculated at approximately 12 weeks of age. Immunologic studies were conducted under a variety of conditions in which fish were provided with vaccination to observe vaccine augmentation, and under conditions in which no vaccine was provided prior to inoculum. The effects of exposure time, HM897 concentration, and vaccine on mortalities relative to control studies in which no HM897 was administered provided data for analysis of the immunologic effect of HM897.
The study was conducted using Rainbow trout (Oncorhynchus mykiss) to compare the effects of a standard fish vaccine to the protection provided by varying dosages of HM897. The fish were challenged with Vibrio anguillarum (V-775), a bacteria that causes fatal vibriosis, typically 3-5 days following pathogen exposure.
Rainbow Trout (Oncorhynchus mykiss) weighing approximately 5 grams were used as test organisms. The fish were obtained from Cran-Mar Trout Farm. Upon arrival at BRL's facility, the fish were quarantined for a minimum of seven days, and observed to be disease free. During this period, the fish were held at a stable temperature. There was consistent water quality in an aerated flow-through system with a flow rate of approximately 30 liters per hour. During the holding period the fish were observed daily for signs of disease, stress, injury, hemorrhaging, and external parasite. The fish were not fed 48 hours prior to testing.
The Rainbow trout used in this study weighed an average of 5 grams. The fish were divided into 21 groups with 50 fish per group. Each group of 50 fish was maintained in two 10-gallon tanks (25 fish/tank).
The level of bacterial dilution to achieve a LD75 (the level designed to kill 75% of the non-vaccinated fish) was a dilution of 10^−4. to 10^−5. The challenge bacteria were grown for 48 hours at 25° C in trypticase soy broth. The 10^−4 dilution was made from this broth in 0.9% saline. All fish excepting the control group that received no bacterial challenge were inoculated 7 days after exposure to HM897.
Rainbow trout hatchling were exposed to the concentration of HM897 as described below. Some of the fish had been vaccinated while others had received no vaccination. In each tank, fifty vaccinated or unvaccinated fish were exposed for a period of 5 minutes to HM897, and then removed and placed in an assigned tank according to the group number.
The positive control group (III) received a vaccine made from Vibrio anguillarum (V-775). This was made through a fermentation and extraction process in the BRL laboratory facility and is equivalent to the aquaculture industry standard vibrio vaccine.
All groups scheduled to be challenged with the Vibrio anguillarum bacterium were challenged at the LD75 dilution on day seven of the experiment by i.p. injection of 0.1 mL of 10^−4 bacterial dilution. The fish were observed daily for mortalities.

Thr-Ala-Glu-Glu-Lys (TAEEK) [HM897] was tested, and the “Cumulative Mortalities” value (Day 1, Group IVa: vaccinated, HM897 2.5 μg/38 liters) was 0, the “Cumulative Mortalities” value (Day 1, Group IVb: vaccinated, HM897 10 μg/38 liters) was 0 and the “Cumulative Mortalities” value (Day 1, Group IVc: vaccinated, HM897 50 μg/38 liters) was 0. For the same substance, the “Cumulative Mortalities” value (Day 1, Group IVd: vaccinated, HM897 100 μg/38 liters) was 0, the “Cumulative Mortalities” value (Day 1, Group Va: not vaccinated, HM897 10 μg/38 liters) was 0 and the “Cumulative Mortalities” value (Day 1, Group Vb: not vaccinated, HM897 25 μg/38 liters) was 0. The “Cumulative Mortalities” value (Day 1, Group Vc: not vaccinated, HM897 75 μg/38 liters) was 0, the “Cumulative Mortalities” value (Day 1, Group Vd: not vaccinated, HM897 150 μg/38 liters) was 0 and the “Cumulative Mortalities” value (Day 2.10, Group IVa: vaccinated, HM897 2.5 μg/38 liters) was 0. The “Cumulative Mortalities” value (Day 2.10, Group IVb: vaccinated, HM897 10 μg/38 liters) was 0, the “Cumulative Mortalities” value (Day 2.10, Group IVc: vaccinated, HM897 50 μg/38 liters) was 0 and the “Cumulative Mortalities” value (Day 2.10, Group IVd: vaccinated, HM897 100 μg/38 liters) was 0. For the same substance, the “Cumulative Mortalities” value (Day 2.10, Group Va: not vaccinated, HM897 10 μg/38 liters) was 0, the “Cumulative Mortalities” value (Day 2.10, Group Vb: not vaccinated, HM897 25 μg/38 liters) was 0 and the “Cumulative Mortalities” value (Day 2.10, Group Vc: not vaccinated, HM897 75 μg/38 liters) was 0. For the same substance, the “Cumulative Mortalities” value (Day 2.10, Group Vd: not vaccinated, HM897 150 μg/38 liters) was 0, the “Cumulative Mortalities” value (Day 11, Group IVa: vaccinated, HM897 2.5 μg/38 liters) was 0 and the “Cumulative Mortalities” value (Day 11, Group IVb: vaccinated, HM897 10 μg/38 liters) was 0. The “Cumulative Mortalities” value (Day 11, Group IVc: vaccinated, HM897 50 μg/38 liters) was 0, the “Cumulative Mortalities” value (Day 11, Group IVd: vaccinated, HM897 100 μg/38 liters) was 0 and the “Cumulative Mortalities” value (Day 11, Group Va: not vaccinated, HM897 10 μg/38 liters) was 0. For the same substance, the “Cumulative Mortalities” value (Day 11, Group Vb: not vaccinated, HM897 25 μg/38 liters) was 0, the “Cumulative Mortalities” value (Day 11, Group Vc: not vaccinated, HM897 75 μg/38 liters) was 1 and the “Cumulative Mortalities” value (Day 11, Group Vd: not vaccinated, HM897 150 μg/38 liters) was 0. For the same substance, the “Cumulative Mortalities” value (Day 12, Group IVa: vaccinated, HM897 2.5 μg/38 liters) was 0, the “Cumulative Mortalities” value (Day 12, Group IVb: vaccinated, HM897 10 μg/38 liters) was 0 and the “Cumulative Mortalities” value (Day 12, Group IVc: vaccinated, HM897 50 μg/38 liters) was 0. For the same substance, the “Cumulative Mortalities” value (Day 12, Group IVd: vaccinated, HM897 100 μg/38 liters) was 0, the “Cumulative Mortalities” value (Day 12, Group Va: not vaccinated, HM897 10 μg/38 liters) was 0 and the “Cumulative Mortalities” value (Day 12, Group Vb: not vaccinated, HM897 25 μg/38 liters) was 0. For the same substance, the “Cumulative Mortalities” value (Day 12, Group Vc: not vaccinated, HM897 75 μg/38 liters) was 1, the “Cumulative Mortalities” value (Day 12, Group Vd: not vaccinated, HM897 150 μg/38 liters) was 0 and the “Cumulative Mortalities” value (Day 13, Group IVa: vaccinated, HM897 2.5 μg/38 liters) was 1. The “Cumulative Mortalities” value (Day 13, Group IVb: vaccinated, HM897 10 μg/38 liters) was 1, the “Cumulative Mortalities” value (Day 13, Group IVc: vaccinated, HM897 50 μg/38 liters) was 1 and the “Cumulative Mortalities” value (Day 13, Group IVd: vaccinated, HM897 100 μg/38 liters) was 8. The “Cumulative Mortalities” value (Day 13, Group Va: not vaccinated, HM897 10 μg/38 liters) was 16, the “Cumulative Mortalities” value (Day 13, Group Vb: not vaccinated, HM897 25 μg/38 liters) was 18 and the “Cumulative Mortalities” value (Day 13, Group Vc: not vaccinated, HM897 75 μg/38 liters) was 21. For the same substance, the “Cumulative Mortalities” value (Day 13, Group Vd: not vaccinated, HM897 150 μg/38 liters) was 14, the “Cumulative Mortalities” value (Day 14, Group IVa: vaccinated, HM897 2.5 μg/38 liters) was 7 and the “Cumulative Mortalities” value (Day 14, Group IVb: vaccinated, HM897 10 μg/38 liters) was 5. For the same substance, the “Cumulative Mortalities” value (Day 14, Group IVc: vaccinated, HM897 50 μg/38 liters) was 5, the “Cumulative Mortalities” value (Day 14, Group IVd: vaccinated, HM897 100 μg/38 liters) was 15 and the “Cumulative Mortalities” value (Day 14, Group Va: not vaccinated, HM897 10 μg/38 liters) was 24. For the same substance, the “Cumulative Mortalities” value (Day 14, Group Vb: not vaccinated, HM897 25 μg/38 liters) was 25, the “Cumulative Mortalities” value (Day 14, Group Vc: not vaccinated, HM897 75 μg/38 liters) was 29 and the “Cumulative Mortalities” value (Day 15, Group IVa: vaccinated, HM897 2.5 μg/38 liters) was 10. The “Cumulative Mortalities” value (Day 15, Group IVb: vaccinated, HM897 10 μg/38 liters) was 6, the “Cumulative Mortalities” value (Day 15, Group IVc: vaccinated, HM897 50 μg/38 liters) was 10 and the “Cumulative Mortalities” value (Day 15, Group IVd: vaccinated, HM897 100 μg/38 liters) was 16. For the same substance, the “Cumulative Mortalities” value (Day 15, Group Va: not vaccinated, HM897 10 μg/38 liters) was 28, the “Cumulative Mortalities” value (Day 15, Group Vb: not vaccinated, HM897 25 μg/38 liters) was 32 and the “Cumulative Mortalities” value (Day 15, Group Vc: not vaccinated, HM897 75 μg/38 liters) was 32. For the same substance, the “Cumulative Mortalities” value (Day 16, Group IVa: vaccinated, HM897 2.5 μg/38 liters) was 13, the “Cumulative Mortalities” value (Day 16, Group IVb: vaccinated, HM897 10 μg/38 liters) was 6 and the “Cumulative Mortalities” value (Day 16, Group IVc: vaccinated, HM897 50 μg/38 liters) was 10. The “Cumulative Mortalities” value (Day 16, Group IVd: vaccinated, HM897 100 μg/38 liters) was 17, the “Cumulative Mortalities” value (Day 16, Group Va: not vaccinated, HM897 10 μg/38 liters) was 33 and the “Cumulative Mortalities” value (Day 16, Group Vb: not vaccinated, HM897 25 μg/38 liters) was 33. The “Cumulative Mortalities” value (Day 16, Group Vc: not vaccinated, HM897 75 μg/38 liters) was 33, the “Cumulative Mortalities” value (Day 17, Group IVa: vaccinated, HM897 2.5 μg/38 liters) was 13 and the “Cumulative Mortalities” value (Day 17, Group IVb: vaccinated, HM897 10 μg/38 liters) was 7. The “Cumulative Mortalities” value (Day 17, Group IVc: vaccinated, HM897 50 μg/38 liters) was 10.
